Assay results as given in BigSolDB 2.1.

O=P(c1ccccc1)(c1ccccc1)c1cc(O)ccc1O
Conditions	solubility (mole fraction)
in 2-ethoxyethanol, 299.43 K	0.0108
in 2-ethoxyethanol, 303.25 K	0.0113
in 2-ethoxyethanol, 308.24 K	0.0124
in 2-ethoxyethanol, 313.46 K	0.0137
in 2-ethoxyethanol, 318.15 K	0.0154
in 2-ethoxyethanol, 323.27 K	0.0168
in 2-ethoxyethanol, 328.26 K	0.018
in 2-ethoxyethanol, 333.45 K	0.0198
in 2-ethoxyethanol, 338.75 K	0.0223
in 2-ethoxyethanol, 343.15 K	0.0236
in 2-ethoxyethanol, 348.15 K	0.0252
in 2-ethoxyethanol, 353.14 K	0.0279
in 2-ethoxyethanol, 358.06 K	0.0295
in 2-ethoxyethanol, 363.15 K	0.0316
in 2-ethoxyethanol, 368.16 K	0.0348
in acetone, 299.45 K	0.00175
in acetone, 303.26 K	0.00188
in acetone, 308.24 K	0.00216
in acetone, 313.47 K	0.00236
in acetone, 318.13 K	0.00262
in acetone, 323.26 K	0.00296
in acetone, 328.25 K	0.00332
in ethanol, 293.95 K	0.00571
in ethanol, 298.26 K	0.00634
in ethanol, 303.44 K	0.00721
in ethanol, 308.26 K	0.00787
in ethanol, 313.45 K	0.00903
in ethanol, 318.47 K	0.00979
in ethanol, 323.35 K	0.0109
in ethanol, 328.43 K	0.0117
in ethanol, 333.35 K	0.0127
in methanol, 294.16 K	0.00625
in methanol, 298.35 K	0.00707
in methanol, 303.87 K	0.00814
in methanol, 308.85 K	0.00946
in methanol, 313.34 K	0.0108
in methanol, 318.15 K	0.0123
in methanol, 323.56 K	0.0138
in toluene, 293.96 K	0.00071
in toluene, 298.25 K	0.00075
in toluene, 303.47 K	0.00078
in toluene, 308.24 K	0.00082
in toluene, 313.45 K	0.00086
in toluene, 318.43 K	0.00089
in toluene, 323.38 K	0.00094
in toluene, 328.45 K	0.00099
in water, 297.16 K	0.00011
in water, 308.15 K	0.00012
in water, 313.34 K	0.00013
in water, 318.15 K	0.00014
in water, 323.47 K	0.00014
in water, 328.46 K	0.00015
in water, 333.25 K	0.00015
in water, 338.17 K	0.00016
in water, 343.25 K	0.00017
in water, 348.36 K	0.00017
in water, 353.14 K	0.00018
in water, 358.13 K	0.00018
in water, 363.27 K	0.00019
in water, 368.26 K	0.00019
